Laboratory results as given in patent US4408054A, “Oximes of 4-benzoyl-piperidines” (Hoechst-Roussel Pharmaceuticals Inc., priority 1982, dated 1983).

Test system: mice
Assay: phenyl-p-quinone writhing assay in mice (analgesia)
Type: in vivo
Conditions: Mus musculus, sc, read-out: ED50 (subcutaneous dose effecting an approximately 50% inhibition of writhing)
From the text: The 3-(4-piperidyl)-1,2-benzisoxazoles of the present invention are useful as analgetics due to their ability to alleviate pain in mammals. […] Exptl. Biol Med., 95 729 (1957)]. Thus, for instance, the subcutaneous dose effecting an approximately 50% inhibition of writhing (ED50) in mice produced in this assay is as follows: […]

SMILES | ED50 [mg/kg]
CN1CCC(c2noc3ccccc23)CC1.Cl [3-(1-Methyl-4-piperidyl)-1,2-benzisoxazole hydrochloride] | 0.415
Cl.Fc1ccc2c(C3CCNCC3)noc2c1 [3-(4-Piperidyl)-6-fluoro-1,2-benzisoxazole hydrochloride] | 1.79
Cl.c1ccc2c(C3CCNCC3)noc2c1 [3-(4-Piperidyl)-1,2-benzisoxazole hydrochloride] | 0.517
CCC(=O)O[C@](Cc1ccccc1)(c1ccccc1)[C@H](C)CN(C)C [propoxyphene, reference compound] | 3.9
Cl.Clc1ccc2c(C3CCNCC3)noc2c1 [3-(4-Piperidyl)-6-chloro-1,2-benzisoxazole hydrochloride] | 5.6
Cc1ccc2onc(C3CCN(C)CC3)c2c1.O=C(O)/C=C/C(=O)O [3-(1-Methyl-4-piperidyl)-5-methyl-1,2-benzisoxazole fumarate] | 0.566
CC(C)=CCN1CCC2(C)c3cc(O)ccc3CC1C2C (centres unmarked) [pentazocine, reference compound] | 1.3

Same assay, conditions: Mus musculus, sc; mice, subcutaneous, phenyl-p-quinone writhing; read-out: ED50 (subcutaneous dose effecting an approximately 50% inhibition of writhing)

SMILES | ED50 [mg/kg]
C=CCN1CCC(c2noc3ccccc23)CC1.Cl [3-(1-Allyl-4-piperidyl)-1,2-benzisoxazole hydrochloride] | 1.06
Cl.c1ccc(CCN2CCC(c3noc4ccccc34)CC2)cc1 [3-[1-(β-Phenylethyl)-4-piperidyl]-1,2-benzisoxazole hydrochloride] | 0.386
CN(C)CCCN1CCC(c2noc3ccccc23)CC1.O=C(O)/C=C/C(=O)O.O=C(O)/C=C/C(=O)O [3-[1-(3-Dimethylaminopropyl)-4-piperidyl]-1,2-benzisoxazole difumarate] | 7.4
C=CCN1CCC(c2noc3cc(F)ccc23)CC1.Cl [3-(1-Allyl-4-piperidyl)-6-fluoro-1,2-benzisoxazole hydrochloride] | 0.455
